Source: the NIST ThermoML archive (doi:10.1021/je0496995)

Tests used:
[1] = Liquid; for viscosity: 101.3 kPa, Capillary tube (Ostwald / Ubbelohde) method; for mass density: 101.33 kPa, Pycnometric method
[2] = mn = molality of the nth substance listed, in mol/kg; conditions: Liquid, m2 = 0; for viscosity: 101.3 kPa, Capillary tube (Ostwald / Ubbelohde) method; for mass density: 101.33 kPa, Pycnometric method
[3] = wn = mass fraction of the nth substance listed; conditions: 101.3 kPa, Liquid; for viscosity: Capillary tube (Ostwald / Ubbelohde) method; for mass density: Pycnometric method

Cc1cccnc1 [3-methylpyridine]
[1]
Conditions	mass density [kg/m3]	viscosity [mPa·s]
293.15 K	956	0.9459
303.15 K	946.6	0.8318
313.15 K	937.7	0.7352
323.15 K	928.3	0.6565
333.15 K	919.3	0.5936
343.15 K	910.3	0.539

Cc1cccnc1 [3-methylpyridine] + O=C(O)c1cccnc1
[2]
Conditions	mass density [kg/m3]	viscosity [mPa·s]
293.15 K	956	0.9459
303.15 K	946.6	0.8318
313.15 K	937.7	0.7352
323.15 K	928.3	0.6565
333.15 K	919.3	0.5936
343.15 K	910.3	0.539

Cc1cccnc1 [3-methylpyridine] + O
[3]
Conditions	mass density, w1 = 0.1 [kg/m3]	mass density, w1 = 0.15 [kg/m3]	viscosity, w2 = 0.1 [mPa·s]	viscosity, w2 = 0.15 [mPa·s]
293.15 K	997.8	997.5	1.291	1.448
303.15 K	994.4	993.7	1.002	1.143
313.15 K	990.2	989.2	0.8117	0.9152
323.15 K	985.2	983.7	0.6796	0.7673
333.15 K	979.6	977.7	0.5794	0.6568
343.15 K	973.7	971.7	0.5053	0.5712
